{"source": "patent US9125913B2", "about": "“Bcl-2-selective apoptosis-inducing agents for the treatment of cancer and immune diseases” (AbbVie Inc., priority 2008, dated 2015)", "data": [{"system": "GST-Bcl-2", "assay": "TR-FRET binding assay, Bcl-2", "conditions": "TR-FRET Ki values", "method_in_brief": "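Compounds serially diluted in DMSO from 50 μM (2× starting concentration, 10% DMSO), mixed with GST-tagged protein, F-Bak peptide probe and Tb-labeled antibody, incubated 3 h at room temperature.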", "values": [{"smiles": "CC1(C)CCC(CN2CCN(c3ccc(C(=O)NS(=O)(=O)c4ccc(NCC5(O)CCCCC5)c([N+](=O)[O-])c4)c(Oc4ccc5[nH]ccc5c4)c3)CC2)=C(c2ccc(Cl)cc2)C1", "note": "[EXAMPLE 238, 4-(4-{[2-(4-chlorophenyl)-4,4-dimethylcyclohex-1-en-1-yl]methyl}piperazin-1-yl)-N-[(4-{[(1-hydroxycyclohexyl)methyl]amino}-3-nitrophenyl)sulfonyl]-2-(1H-indol-5-yloxy)benzamide]", "Binding selectivity ratio (Bcl-XL Ki/Bcl-2 Ki)": ">1534.3"}, {"smiles": "COCCNc1ccc(S(=O)(=O)NC(=O)c2ccc(N3CCN(CC4=C(c5ccc(Cl)cc5)CC(C)(C)CC4)CC3)cc2Oc2cccc3[nH]ccc23)cc1[N+](=O)[O-]", "note": "[EXAMPLE 239, 4-(4-{[2-(4-chlorophenyl)-4,4-dimethylcyclohex-1-en-1-yl]methyl}piperazin-1-yl)-2-(1H-indol-4-yloxy)-N-({4-[(2-methoxyethyl)amino]-3-nitrophenyl}sulfonyl)benzamide]", "Binding selectivity ratio (Bcl-XL Ki/Bcl-2 Ki)": 430.9}, {"smiles": "CC1(C)CCC(CN2CCN(c3ccc(C(=O)NS(=O)(=O)c4ccc(NC5(CO)CCOCC5)c([N+](=O)[O-])c4)c(Oc4ccc5[nH]ccc5c4)c3)CC2)=C(c2ccc(Cl)cc2)C1", "note": "[EXAMPLE 240, 4-(4-{[2-(4-chlorophenyl)-4,4-dimethylcyclohex-1-en-1-yl]methyl}piperazin-1-yl)-N-[(4-{[4-(hydroxymethyl)tetrahydro-2H-pyran-4-yl]amino}-3-nitrophenyl)sulfonyl]-2-(1H-indol-5-yloxy)benzamide]", "Binding selectivity ratio (Bcl-XL Ki/Bcl-2 Ki)": ">795.4"}, {"smiles": "CC1(C)CCC(CN2CCN(c3ccc(C(=O)NS(=O)(=O)c4ccc(NC5(CO)CCOCC5)c([N+](=O)[O-])c4)c(Oc4cccc5[nH]ccc45)c3)CC2)=C(c2ccc(Cl)cc2)C1", "note": "[EXAMPLE 241, 4-(4-{[2-(4-chlorophenyl)-4,4-dimethylcyclohex-1-en-1-yl]methyl}piperazin-1-yl)-N-[(4-{[4-(hydroxymethyl)tetrahydro-2H-pyran-4-yl]amino}-3-nitrophenyl)sulfonyl]-2-(1H-indol-4-yloxy)benzamide]", "Binding selectivity ratio (Bcl-XL Ki/Bcl-2 Ki)": ">108.3"}, {"smiles": "CC1(C)CCC(CN2CCN(c3ccc(C(=O)NS(=O)(=O)c4ccc(NC(CO)C5CCOCC5)c([N+](=O)[O-])c4)c(Oc4ccc5[nH]ccc5c4)c3)CC2)=C(c2ccc(Cl)cc2)C1", "note": "(centres unmarked) [EXAMPLE 242, 4-(4-{[2-(4-chlorophenyl)-4,4-dimethylcyclohex-1-en-1-yl]methyl}piperazin-1-yl)-N-({4-[(2-hydroxy-1-tetrahydro-2H-pyran-4-ylethyl)amino]-3-nitrophenyl}sulfonyl)-2-(1H-indol-5-yloxy)benzamide]", "Binding selectivity ratio (Bcl-XL Ki/Bcl-2 Ki)": ">367.6"}, {"smiles": "CC1(C)CCC(CN2CCN(c3ccc(C(=O)NS(=O)(=O)c4ccc(NC5CCN(CCn6cccn6)CC5)c([N+](=O)[O-])c4)c(Oc4ccc5[nH]ccc5c4)c3)CC2)=C(c2ccc(Cl)cc2)C1", "note": "[EXAMPLE 243, 4-(4-{[2-(4-chlorophenyl)-4,4-dimethylcyclohex-1-en-1-yl]methyl}piperazin-1-yl)-2-(1H-indol-5-yloxy)-N-{[3-nitro-4-({1-[2-(1H-pyrazol-1-yl)ethyl]piperidin-4-yl}amino)phenyl]sulfonyl}benzamide]", "Binding selectivity ratio (Bcl-XL Ki/Bcl-2 Ki)": ">2357.6"}, {"smiles": "CC1(C)CCC(CN2CCN(c3ccc(C(=O)NS(=O)(=O)c4ccc(NCC5CCOCC5)c([N+](=O)[O-])c4)c(Oc4cccc5[nH]ccc45)c3)CC2)=C(c2ccc(Cl)cc2)C1", "note": "[EXAMPLE 244, 4-(4-{[2-(4-chlorophenyl)-4,4-dimethylcyclohex-1-en-1-yl]methyl}piperazin-1-yl)-2-(1H-indol-4-yloxy)-N-({3-nitro-4-[(tetrahydro-2H-pyran-4-ylmethyl)amino]phenyl}sulfonyl)benzamide]", "Binding selectivity ratio (Bcl-XL Ki/Bcl-2 Ki)": ">4136.9"}, {"smiles": "CNc1ccc(S(=O)(=O)NC(=O)c2ccc(N3CCN(CC4=C(c5ccc(Cl)cc5)CC(C)(C)CC4)CC3)cc2Oc2ccc3[nH]ccc3c2)cc1[N+](=O)[O-]", "note": "[EXAMPLE 245, 4-(4-{[2-(4-chlorophenyl)-4,4-dimethylcyclohex-1-en-1-yl]methyl}piperazin-1-yl)-2-(1H-indol-5-yloxy)-N-{[4-(methylamino)-3-nitrophenyl]sulfonyl}benzamide]", "Binding selectivity ratio (Bcl-XL Ki/Bcl-2 Ki)": ">408.2"}, {"smiles": "CNc1ccc(S(=O)(=O)NC(=O)c2ccc(N3CCN(CC4=C(c5ccc(Cl)cc5)CC(C)(C)CC4)CC3)cc2Oc2cccc3[nH]ccc23)cc1[N+](=O)[O-]", "note": "[EXAMPLE 246, 4-(4-{[2-(4-chlorophenyl)-4,4-dimethylcyclohex-1-en-1-yl]methyl}piperazin-1-yl)-2-(1H-indol-4-yloxy)-N-{[4-(methylamino)-3-nitrophenyl]sulfonyl}benzamide]", "Binding selectivity ratio (Bcl-XL Ki/Bcl-2 Ki)": 490.9}, {"smiles": "CC(c1ccccc1-c1ccc(Cl)cc1)N1CCN(c2ccc(C(=O)NS(=O)(=O)c3ccc(NCCCN4CCOCC4)c([N+](=O)[O-])c3)c(Oc3cccc4[nH]ccc34)c2)CC1", "note": "(centres unmarked) [EXAMPLE 247, 4-{4-[1-(4′-chloro-1,1′-biphenyl-2-yl)ethyl]piperazin-1-yl}-2-(1H-indol-4-yloxy)-N-({4-[(3-morpholin-4-ylpropyl)amino]-3-nitrophenyl}sulfonyl)benzamide]", "Binding selectivity ratio (Bcl-XL Ki/Bcl-2 Ki)": 145.3}, {"smiles": "O=C(NS(=O)(=O)c1ccc(NCC2CCOCC2)c([N+](=O)[O-])c1)c1ccc(N2CCN(CC3=C(c4ccc(Cl)cc4)CCC(O)C3)CC2)cc1Oc1ccc2[nH]ccc2c1", "note": "(centres unmarked) [EXAMPLE 248, 4-(4-{[2-(4-chlorophenyl)-5-hydroxycyclohex-1-en-1-yl]methyl}piperazin-1-yl)-2-(1H-indol-5-yloxy)-N-({3-nitro-4-[(tetrahydro-2H-pyran-4-ylmethyl)amino]phenyl}sulfonyl)benzamide]", "Binding selectivity ratio (Bcl-XL Ki/Bcl-2 Ki)": 12079.6}, {"smiles": "O=C(NS(=O)(=O)c1ccc(NCC2CCOCC2)c([N+](=O)[O-])c1)c1ccc(N2CCN(CC3=C(c4ccc(Cl)cc4)CCC(N4CCOCC4)C3)CC2)cc1Oc1ccc2[nH]ccc2c1", "note": "(centres unmarked) [EXAMPLE 249, 4-(4-{[2-(4-chlorophenyl)-5-morpholin-4-ylcyclohex-1-en-1-yl]methyl}piperazin-1-yl)-2-(1H-indol-5-yloxy)-N-({3-nitro-4-[(tetrahydro-2H-pyran-4-ylmethyl)amino]phenyl}sulfonyl)benzamide]", "Binding selectivity ratio (Bcl-XL Ki/Bcl-2 Ki)": ">7302.0"}, {"smiles": "CC1(C)CCC(CN2CCN(c3ccc(C(=O)NS(=O)(=O)c4ccc(NCC5(N)CCCCC5)c([N+](=O)[O-])c4)c(Oc4ccc5[nH]ccc5c4)c3)CC2)=C(c2ccc(Cl)cc2)C1", "note": "[EXAMPLE 250, N-[(4-{[(1-aminocyclohexyl)methyl]amino}-3-nitrophenyl)sulfonyl]-4-(4-{[2-(4-chlorophenyl)-4,4-dimethylcyclohex-1-en-1-yl]methyl}piperazin-1-yl)-2-(1H-indol-5-yloxy)benzamide]", "Binding selectivity ratio (Bcl-XL Ki/Bcl-2 Ki)": 811}, {"smiles": "CC1(C)CCC(CN2CCN(c3ccc(C(=O)NS(=O)(=O)c4ccc(NCCN5CCCC5=O)c([N+](=O)[O-])c4)c(Oc4ccc5[nH]ccc5c4)c3)CC2)=C(c2ccc(Cl)cc2)C1", "note": "[EXAMPLE 251, 4-(4-{[2-(4-chlorophenyl)-4,4-dimethylcyclohex-1-en-1-yl]methyl}piperazin-1-yl)-2-(1H-indol-5-yloxy)-N-[(3-nitro-4-{[2-(2-oxopyrrolidin-1-yl)ethyl]amino}phenyl)sulfonyl]benzamide]", "Binding selectivity ratio (Bcl-XL Ki/Bcl-2 Ki)": 1438.5}, {"smiles": "CC(c1ccccc1-c1ccc(Cl)cc1)N1CCN(c2ccc(C(=O)NS(=O)(=O)c3ccc(NCC4CCOCC4)c([N+](=O)[O-])c3)c(Oc3ccc4[nH]ccc4c3)c2)CC1", "note": "(centres unmarked) [EXAMPLE 252, 4-{4-[1-(4′-chloro-1,1′-biphenyl-2-yl)ethyl]piperazin-1-yl}-2-(1H-indol-5-yloxy)-N-({3-nitro-4-[(tetrahydro-2H-pyran-4-ylmethyl)amino]phenyl}sulfonyl)benzamide]", "Binding selectivity ratio (Bcl-XL Ki/Bcl-2 Ki)": ">8570.3"}, {"smiles": "CC(C1=C(c2ccc(Cl)cc2)CC(C)(C)CC1)N1CCN(c2ccc(C(=O)NS(=O)(=O)c3ccc(NCC4CCOCC4)c([N+](=O)[O-])c3)c(Oc3ccc4[nH]ccc4c3)c2)CC1", "note": "(centres unmarked) [EXAMPLE 253, 4-(4-{1-[2-(4-chlorophenyl)-4,4-dimethylcyclohex-1-en-1-yl]ethyl}piperazin-1-yl)-2-(1H-indol-5-yloxy)-N-({3-nitro-4-[(tetrahydro-2H-pyran-4-ylmethyl)amino]phenyl}sulfonyl)benzamide]", "Binding selectivity ratio (Bcl-XL Ki/Bcl-2 Ki)": ">4663.3"}, {"smiles": "CC(C1=C(c2ccc(Cl)cc2)CC(C)(C)CC1)N1CCN(c2ccc(C(=O)NS(=O)(=O)c3ccc(NN4CCN(C)CC4)c([N+](=O)[O-])c3)c(Oc3ccc4[nH]ccc4c3)c2)CC1", "note": "(centres unmarked) [EXAMPLE 254, 4-(4-{1-[2-(4-chlorophenyl)-4,4-dimethylcyclohex-1-en-1-yl]ethyl}piperazin-1-yl)-2-(1H-indol-5-yloxy)-N-({4-[(4-methylpiperazin-1-yl)amino]-3-nitrophenyl}sulfonyl)benzamide]", "Binding selectivity ratio (Bcl-XL Ki/Bcl-2 Ki)": 421.7}, {"smiles": "C[C@H](c1ccccc1-c1ccc(Cl)cc1)N1CCN(c2ccc(C(=O)NS(=O)(=O)c3ccc(NCC4CCOCC4)c([N+](=O)[O-])c3)c(Oc3cccc4[nH]ccc34)c2)CC1", "note": "[EXAMPLE 255, 4-{4-[(1R)-1-(4′-chloro-1,1′-biphenyl-2-yl)ethyl]piperazin-1-yl}-2-(1H-indol-4-yloxy)-N-({3-nitro-4-[(tetrahydro-2H-pyran-4-ylmethyl)amino]phenyl}sulfonyl)benzamide]", "Binding selectivity ratio (Bcl-XL Ki/Bcl-2 Ki)": ">84.2"}, {"smiles": "C[C@@H](c1ccccc1-c1ccc(Cl)cc1)N1CCN(c2ccc(C(=O)NS(=O)(=O)c3ccc(NCC4CCOCC4)c([N+](=O)[O-])c3)c(Oc3cccc4[nH]ccc34)c2)CC1", "note": "[EXAMPLE 256, 4-{4-[(1S)-1-(4′-chloro-1,1′-biphenyl-2-yl)ethyl]piperazin-1-yl}-2-(1H-indol-4-yloxy)-N-({3-nitro-4-[(tetrahydro-2H-pyran-4-ylmethyl)amino]phenyl}sulfonyl)benzamide]", "Binding selectivity ratio (Bcl-XL Ki/Bcl-2 Ki)": ">5519.8"}, {"smiles": "CC(C1=C(c2ccc(Cl)cc2)CC(C)(C)CC1)N1CCN(c2ccc(C(=O)NS(=O)(=O)c3ccc(NCCCN4CCOCC4)c([N+](=O)[O-])c3)c(Oc3ccc4[nH]ccc4c3)c2)CC1", "note": "(centres unmarked) [EXAMPLE 257, 4-(4-{1-[2-(4-chlorophenyl)-4,4-dimethylcyclohex-1-en-1-yl]ethyl}piperazin-1-yl)-2-(1H-indol-5-yloxy)-N-({4-[(3-morpholin-4-ylpropyl)amino]-3-nitrophenyl}sulfonyl)benzamide]", "Binding selectivity ratio (Bcl-XL Ki/Bcl-2 Ki)": 100.2}]}]}
